ChEMBL document CHEMBL5528071, “Discovery of Novel Steroid-Based Histamine H3 Receptor Antagonists/Inverse Agonists” (J Med Chem, 2024)

How the values were obtained:
Histamine H3 receptor [1] = target: T1, Histamine H3 receptor (Homo sapiens, UniProt Q9Y5N1)
Description: Displacement of N-alpha-[methyl-3H]methylhistamine dihydrochloride from human Histamine H3 receptor expressed in CHO-K1 cell membrane assessed as inhibition constant incubated for 30 mins by liquid scintillation analyzer

Rattus norvegicus [2] = species on record: Rattus norvegicus; experiment: Displacement of [3H]quinuclidinyl benzilate from Wistar rat cerebral cortex membrane muscarinic AChR at 1 uM by liquid scintillation counter relative to control; assay type: cell membranes
Histamine H3 receptor [3] = target: Histamine H3 receptor (Rattus norvegicus, UniProt Q9QYN8)
Sequence of Histamine H3 receptor (Rattus norvegicus, UniProt Q9QYN8) (Q9QYN8 whole entry): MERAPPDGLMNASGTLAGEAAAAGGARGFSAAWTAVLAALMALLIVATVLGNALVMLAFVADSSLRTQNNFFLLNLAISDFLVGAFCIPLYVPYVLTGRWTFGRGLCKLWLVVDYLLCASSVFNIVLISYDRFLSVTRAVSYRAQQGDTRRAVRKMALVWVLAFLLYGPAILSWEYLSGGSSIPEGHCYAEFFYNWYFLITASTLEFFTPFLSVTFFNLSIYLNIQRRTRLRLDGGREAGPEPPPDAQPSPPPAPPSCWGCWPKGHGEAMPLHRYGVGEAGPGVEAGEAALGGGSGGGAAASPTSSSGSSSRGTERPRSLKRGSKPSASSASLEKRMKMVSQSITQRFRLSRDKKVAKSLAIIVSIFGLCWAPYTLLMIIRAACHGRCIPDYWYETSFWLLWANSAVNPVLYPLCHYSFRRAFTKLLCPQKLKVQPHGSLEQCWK
Description: Displacement of N-alpha-[methyl-3H]-methylhistamine dihydrochloride from Sprague-Dawley rat cerebral cortex membrane Histamine H3 receptor assessed as inhibition constant incubated for 30 mins by scintillation counter

[4] = target: Voltage-gated inwardly rectifying potassium channel KCNH2 (Homo sapiens, UniProt Q12809); experiment: Inhibition of human ERG expressed in CHO cells incubated for 7 to 10 mins by automated whole-cell patch clamp recordings; assay type: toxicity, cell-based
Sequence of Voltage-gated inwardly rectifying potassium channel KCNH2 (Q12809 whole entry): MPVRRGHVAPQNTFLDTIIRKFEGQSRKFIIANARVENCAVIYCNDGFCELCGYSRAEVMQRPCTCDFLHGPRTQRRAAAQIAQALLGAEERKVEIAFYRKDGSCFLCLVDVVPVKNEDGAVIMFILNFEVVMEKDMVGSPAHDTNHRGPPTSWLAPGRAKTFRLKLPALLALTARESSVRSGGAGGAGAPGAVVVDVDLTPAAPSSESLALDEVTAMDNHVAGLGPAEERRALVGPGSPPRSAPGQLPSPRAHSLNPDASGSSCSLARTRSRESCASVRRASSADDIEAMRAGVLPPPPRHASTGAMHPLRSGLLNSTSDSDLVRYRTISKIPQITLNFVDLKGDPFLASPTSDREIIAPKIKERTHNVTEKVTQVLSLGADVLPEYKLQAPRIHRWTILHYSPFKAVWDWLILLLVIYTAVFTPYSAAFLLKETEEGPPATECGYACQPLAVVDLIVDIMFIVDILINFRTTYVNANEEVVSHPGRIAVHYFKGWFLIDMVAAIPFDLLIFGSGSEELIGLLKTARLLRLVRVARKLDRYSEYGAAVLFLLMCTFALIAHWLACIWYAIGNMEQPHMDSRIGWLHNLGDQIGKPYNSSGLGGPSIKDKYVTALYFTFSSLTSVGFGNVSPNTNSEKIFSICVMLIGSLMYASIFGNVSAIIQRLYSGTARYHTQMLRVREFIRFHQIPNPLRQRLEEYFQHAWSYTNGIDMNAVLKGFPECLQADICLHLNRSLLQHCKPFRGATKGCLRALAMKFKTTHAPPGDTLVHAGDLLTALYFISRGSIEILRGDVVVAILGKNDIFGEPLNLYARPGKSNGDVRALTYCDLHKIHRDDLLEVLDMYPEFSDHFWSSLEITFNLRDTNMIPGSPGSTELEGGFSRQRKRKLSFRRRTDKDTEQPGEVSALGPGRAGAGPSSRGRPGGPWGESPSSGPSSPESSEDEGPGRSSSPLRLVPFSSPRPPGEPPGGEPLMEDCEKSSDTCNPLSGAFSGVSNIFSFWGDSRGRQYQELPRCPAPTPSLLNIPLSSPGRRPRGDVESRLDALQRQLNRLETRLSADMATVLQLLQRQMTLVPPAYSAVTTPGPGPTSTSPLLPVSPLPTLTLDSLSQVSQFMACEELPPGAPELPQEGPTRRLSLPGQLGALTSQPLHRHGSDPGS

Rattus norvegicus [5] = experiment: Cognitive enhancing effect in Hannover Wistar rat model of delay-induced natural forgetting assessed as reversal of exploration time by measuring minimal effective dose orally administered for 30 mins by novel object recognition test; assay type: functional; details: 0.5 h, route po, read-out: MED
Mus musculus = experiment: Cognitive enhancing effect in scopolamine-induced NMRI mouse model assessed as reversal of exploration time by measuring minimum effective dose preadministered orally for 30 mins followed by scopolamine administration by place recognition test; assay type: functional; details: 0.5 h, route po, read-out: MED
[6] = Ratio of drug concentration in Hannover Wistar rat brain to plasma administered orally for 2 days and measured 1 hrs post last dose by HPLC-MS/MS analysis; assay type: ADME; details: route po, read-out: BPR
[7] = In vivo antagonist activity at Histamine H3 receptor in Wistar rat assessed as reduction in imetit-induced water intake pretreated with compound for 30 mins followed by imetit administration and measured after 30 mins by dipsogenia test; assay type: functional; details: 1 h, time 60 min
[8] = Bioavailability in Wistar rat at 10 mg/kg, po or 3 mg/kg, iv measured after 24 hrs by HPLC-MS/MS analysis; assay type: ADME, organism-based; details: in vivo
[9] = Displacement of [3H]quinuclidinyl benzilate from Wistar rat cerebral cortex membrane muscarinic AChR assessed as inhibition constant by liquid scintillation counter
hERG (KCNH2) [10] = target: T2, hERG (KCNH2) (Homo sapiens, UniProt Q12809); experiment: Inhibition of human ERG expressed in CHO cells at 3 uM incubated for 7 to 10 mins by automated whole-cell patch clamp recordings relative to control; details: CHO cells expressing human ERG
T2 sequence (Q12809 whole entry): as above

hERG (KCNH2) [11] = target: T2, hERG (KCNH2); experiment: Inhibition of human ERG expressed in CHO cells at 1 uM incubated for 7 to 10 mins by automated whole-cell patch clamp recordings relative to control; details: CHO cells expressing human ERG
Histamine H3 receptor [12] = target: T1, Histamine H3 receptor; experiment: Antagonist activity at human Histamine H3 receptor

T1 sequence (Q9Y5N1 whole entry): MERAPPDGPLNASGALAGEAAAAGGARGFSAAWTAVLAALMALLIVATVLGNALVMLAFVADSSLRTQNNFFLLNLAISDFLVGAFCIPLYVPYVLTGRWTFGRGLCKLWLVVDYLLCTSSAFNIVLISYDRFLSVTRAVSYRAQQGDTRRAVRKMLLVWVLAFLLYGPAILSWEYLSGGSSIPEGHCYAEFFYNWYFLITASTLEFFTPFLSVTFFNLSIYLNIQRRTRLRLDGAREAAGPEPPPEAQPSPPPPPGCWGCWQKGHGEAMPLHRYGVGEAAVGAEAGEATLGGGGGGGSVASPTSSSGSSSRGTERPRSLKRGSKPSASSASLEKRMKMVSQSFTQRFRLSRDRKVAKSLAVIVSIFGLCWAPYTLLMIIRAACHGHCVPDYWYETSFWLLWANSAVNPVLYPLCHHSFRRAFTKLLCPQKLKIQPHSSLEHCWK

Compound	Ki (Histamine H3 receptor [1])	Ki (Histamine H3 receptor [3])	IC50 [4]	ED50 [7]	other results
C[C@]12CC[C@@H]3c4ccc(OCCCN5CCCC5)cc4CC[C@H]3[C@@H]1CCCN2	1.5 nM	30.2 nM	–	–	Activity (Rattus norvegicus [2]): 36%
C[C@@H]1CCCN1CCCOc1ccc2c(c1)CC[C@@H]1[C@@H]2CC[C@@]2(C)NC(=O)CC[C@@H]12	–	–	> 30000 nM	–	–
C[C@@H]1CCCN1CCCOc1ccc2c(c1)CC[C@@H]1[C@@H]2CC[C@@]2(C)[C@H]1CCC(=O)N2C	–	–	9900 nM	0.4 mg/kg	minimal effective dose (Rattus norvegicus [5]): 0.3 mg/kg; minimal effective dose (Mus musculus): 0.1 mg/kg; Kp at 49 h [6]: 1.4; bioavailability [8]: 63.7%
C[C@@H]1CCCN1CCCOc1ccc2c(c1)CC[C@H]1[C@H]3[C@@H]4C[C@@H]4C(=O)N[C@@]3(C)CC[C@H]21	2.4 nM	9.9 nM	5000 nM	0.33 mg/kg	Ki [9]: 3600 nM
C[C@@H]1C[C@@H]2[C@@H]3CCc4cc(OCCCN5CCC[C@H]5C)ccc4[C@H]3CC[C@]2(C)N(C)C1=O	1.5 nM	3.8 nM	2700 nM	–	–
C[C@@H]1CCCN1CCCOc1ccc2c(c1)CC[C@@H]1[C@@H]2CC[C@]2(C)NC(=O)CC[C@H]12	–	–	22000 nM	–	–
CCC(=O)N1CCC[C@H]2[C@@H]3CCc4cc(OCCCN5CCC[C@H]5C)ccc4[C@H]3CC[C@@]21C	8 nM	37.3 nM	> 10000 nM	–	Ki [9]: 1700 nM
C[C@@H]1CCCN1CCCOc1ccc2c(c1)CC[C@H]1[C@@H]3[C@@H]4C[C@@H]4C(=O)N[C@@]3(C)CC[C@H]21	4.9 nM	9.4 nM	11700 nM	1.5 mg/kg	–
CN1CCC[C@H]2[C@@H]3CCc4cc(OCCCN5CCCC5)ccc4[C@H]3CC[C@@]21C	0.9 nM	5.1 nM	–	–	Activity (Rattus norvegicus [2]): 69%
C[C@@H]1CCCN1CCCOc1ccc2c(c1)CC[C@@H]1[C@@H]2CC[C@@]2(C)[C@@H]1CCC(=O)N2C	–	–	9600 nM	0.23 mg/kg	–
C[C@@H]1CC(=O)N[C@@]2(C)CC[C@@H]3c4ccc(OCCCN5CCC[C@H]5C)cc4CC[C@H]3[C@H]12	2.2 nM	24.8 nM	11000 nM	1.3 mg/kg	Ki [9]: 2500 nM
CC(=O)N[C@]12CCC(=O)N[C@@]1(C)CC[C@@H]1c3ccc(OCCCN4CCC[C@H]4C)cc3CC[C@H]12	15.1 nM	14.5 nM	–	–	inhibition at 3 µM (hERG (KCNH2) [10]): 8%; inhibition at 1 µM (hERG (KCNH2) [11]): 3%
C[C@@H]1CCCN1CCCOc1ccc2c(c1)CC[C@H]1C3=CCC(=O)N(C)[C@@]3(C)CC[C@H]21	1.1 nM	5.7 nM	8600 nM	0.22 mg/kg	Ki [9]: 1500 nM
C[C@@H]1CCCN1CCCOc1ccc2c(c1)CC[C@@H]1[C@@H]2CC[C@@]2(C)[C@H]1CCCN2C(=O)C(C)(C)C	7.8 nM	55.2 nM	–	–	Ki [9]: 816 nM
C[C@@H]1CCCN1CCCOc1ccc2c(c1)CC[C@H]1[C@@H]3[C@H](C#N)CC(=O)N(C)[C@@]3(C)CC[C@H]21	2 nM	7.2 nM	10400 nM	0.78 mg/kg	–
CN1CCC[C@H]2[C@@H]3CC[C@H]4C[C@@H](OC(=O)CCN5CCCC5)CC[C@]4(C)[C@H]3CC[C@@]21C	10.6 nM	–	–	–	Activity (Rattus norvegicus [2]): 44%
C[C@@H]1CCCN1CCCOc1ccc2c(c1)CC[C@H]1[C@@H]3[C@H](C#N)CC(=O)N[C@@]3(C)CC[C@H]21	8.6 nM	20.5 nM	24000 nM	3.6 mg/kg	Ki [9]: 2400 nM
C[C@@H]1CCCN1CCCOc1ccc2c(c1)CC[C@@H]1[C@@H]2CC[C@@]2(C)[C@H]1CCCN2C(=O)C1CCOC1 (some centres not stated)	–	96 nM	–	–	–
C[C@@H]1CCCN1CCCOc1ccc2c(c1)CC[C@H]1C3=CCC(=O)N[C@@]3(C)CC[C@H]21	–	6.8 nM	18700 nM	0.12 mg/kg	minimal effective dose (Mus musculus): 0.3 mg/kg; Kp at 49 h [6]: 0.6; bioavailability [8]: 63.8%
NC(=O)c1ccc([C@@H]2C[C@H]2C(=O)N2CCN(C3CCC3)CC2)cc1	–	–	–	–	Ki (Histamine H3 receptor [12]): 0.501 nM
C[C@@H]1CCCN1CCCOc1ccc2c(c1)CC[C@@H]1[C@@H]2CC[C@]2(C)NC(=O)CC[C@@H]12	–	–	3700 nM	–	–
C[C@]12CC[C@@H]3c4ccc(OCCCN5CCCC5)cc4CC[C@H]3[C@@H]1CCCN2C=O	1.8 nM	21.8 nM	6000 nM	–	Activity (Rattus norvegicus [2]): 13%
C[C@@H]1CCCN1CCCOc1ccc2c(c1)CC[C@@H]1[C@@H]2CC[C@@]2(C)[C@H]1CCCN2C(=O)c1ccccc1	11.6 nM	–	–	–	–
C[C@]12CC[C@@H]3c4ccc(OCCCN5CCCC5)cc4CC[C@H]3[C@@H]1CCCN2CCO	3.4 nM	10.5 nM	–	–	–
C[C@@H]1CCCN1CCCOc1ccc2c(c1)CC[C@H]1[C@@H]3[C@@H]4C[C@@H]4C(=O)N(C)[C@@]3(C)CC[C@H]21	1 nM	3.3 nM	7700 nM	1.4 mg/kg	–
C[C@@H]1CC(=O)N(C)[C@@]2(C)CC[C@@H]3c4ccc(OCCCN5CCC[C@H]5C)cc4CC[C@H]3[C@H]12	2.4 nM	2.2 nM	8800 nM	0.48 mg/kg	–
C[C@@H]1C[C@H]2[C@@H]3CCc4cc(OCCCN5CCC[C@H]5C)ccc4[C@H]3CC[C@]2(C)NC1=O	4.1 nM	9 nM	14500 nM	0.86 mg/kg	Ki [9]: 2700 nM
CC(=O)N1CCC[C@H]2[C@@H]3CCc4cc(OCCCN5CCC[C@H]5C)ccc4[C@H]3CC[C@@]21C	6.9 nM	15.9 nM	10000 nM	–	–
